For experiment [1], the system named is antibody (HYB 273-1). Put plainly: Competitive ELISA for BAM on plates coated with BAM-OA by passive adsorption. In kind it is binding, mice. The settings on record: FIG. 3B. The protocol:
i) Passive adsorption: A MaxiSorp™ microtitre plate was filled by a stationary dispensor with 200 μL/well BAM-OA (16.7 ng/mL) in coating buffer. After coating over night at 4° C. the plate was washed 4 times with de-ionised water and dried 30 min at 37° C. The plate was either used immediately or sealed with tape lid and stored at room temperature in the dark until use.
(§1) Standards (in Milli-Q® water) and samples (150 μL) were added to the hapten-coated plate followed by the addition of 50 μL antibody (HYB 273-1) diluted in 10×PBST (66.7 ng/mL). The plate was incubated for 1 hour. After washing 4 times with PBST, the plate was incubated with 200 μL/well RαM^HRP diluted 1:1000 in PBST. After a final 6 times wash with PBST, 200 μL/well TMB-Plus was added. The colour development was stopped after 10 minutes by adding 50 μL/well 1 M H2SO4 and the absorbance was read at 450 nm.
(§2) The standards were used to generate a semi-log graph based on the 4-parameter-logistic method (Rodbard, 1974: equation 1), followed by calculation of sample values. [formula]
To compare the performances of the two ELISA methods with antigen coated by passive adsorption to that by covalent immobilisation respectively, standard curves were generated with BAM standards ranging from 0.0156 to 2 μg/L on each surface using the identical assay procedures. The data were normalised by the % B/B0 transformation (eq 2). […]

Experiment [2] concerns antibody (HYB 273-1). Put plainly: Competitive ELISA for BAM on plates covalently (photocoupled) coated with BAM-OA-AQ. In kind it is binding, mice. The settings on record: for cross-reactivity (IC50 of BAM divided by IC50 of analyte, times 100): analytes assayed up to 100 mg/L, antibody HYB 273-1. The protocol: A PolySorp™ microtitre plate was filled by a stationary dispensor with 200 μL/well BAM-OA-AQ (50 ng/mL) in 0.1×PBS. After being exposed to uv-light (300-400 nm) at 34° C. for 30 min, the plate was washed 4 times with de-ionised water and dried 30 min at 37° C. The plate was either used immediately or sealed with tape lid and stored at room temperature in the dark until use.
as §1, §2
To compare the performances of the two ELISA methods with antigen coated by passive adsorption to that by covalent immobilisation respectively, standard curves were generated with BAM standards ranging from 0.0156 to 2 μg/L on each surface using the identical assay procedures. The data were normalised by the % B/B0 transformation (eq 2). The normalised data were then plotted vs. BAM concentration and the four-parameter-logistic equation (eq 1) was fitted to the experimental points (FIG. 3).
As to detection limits (defined as the analyte concentration giving a 15% decrease in maximum signal: DL15) and sensitivity (defined as the analyte concentration giving a 50% decrease in maximum signal: IC50) the two surface performs almost equally. […] Further development of the BAM assay was therefore based on this technology and the following results are generated on PolySorp™ microtire plates covalently coated with BAM-OA-AQ as described herein in the Preparation of plates section
In general terms: ELISA stands for enzyme-linked immunosorbent assay.

Experiment [3] is described as follows: Immunisation of mice with hapten-polymer carrier complex, raising of monoclonal antibodies. The experiment is classed as in vivo. To be noted: hapten coupled to polymer carrier (ovalbumin). The method, then: Live mice were primed for immunisation by an intraperitoneal injection of live BCG-vaccine one month before immunisation. The antigen (hapten-OA complex), once adsorbed onto Al(OH)3, was injected intraperitonally and test bleeding were collected. When antibody titre's exceeded 1:2000, mice were considered ready for fusion and the method described by Köhler and Milstein (1975) was employed with minor modifications. Monoclonal antibodies were selected on basis of titre, affinity and specificity. Selected clones were recloned until monoclonality and stored frozen at −80° C.
Ten to twelve weeks old female Balb/cxCF1 F1-hybrid mice were used for immunisation. One month before immunisation they were primed with 0.2 mL live BCG-vaccine intraperitonally. The antigen (25×carrier/immunogen) was absorbed onto Al(OH)3 as an adjuvant. The total volume of vaccine per immunisation was 200 μL, containing 25× of antigen and […] of adjuvant. The antigen was injected intraperitonally with 2-weeks intervals. Test bleedings were collected 10 days after immunisation and assayed in ELISA.
When antibody titre's exceeded 1:2000, mice were regarded ready for fusion. The procedure as described by Köhler and Milstein (1975) was employed with minor modifications. Monoclonal antibodies were selected on basis of titre, affinity and specificity. […]

“And” between values parts separate entries of the source, which are not always exact repeats. Equal values may be shown once. “Also recorded” adds a separate entry of the source.

As to `NC(=O)c1c(Cl)cccc1Cl` [BAM, 2,6-dichlorobenzamide], the “DL15 (detection limit, analyte concentration giving a 15% decrease in maximum signal)” value in the experiment on antibody (HYB 273-1) [1] (passive adsorption) stood at 0.045 µg/L; in the experiment with antibody (HYB 273-1) [2] (photo catalysed covalent immobilisation, FIG. 3A) it was 0.02 µg/L. Moreover, the “IC50 (analyte concentration giving a 50% decrease in maximum signal)” value was 0.144 ng/mL and 0.14 ng/mL in the experiment on antibody (HYB 273-1) [1] (passively adsorbed plates (MaxiSorp)); 0.189 ng/mL and 0.19 ng/mL with antibody (HYB 273-1) [2] (covalently immobilised plates (PolySorp, photocoupled), FIG. 3A).
Consider `O=C(CCCCCNC(=O)c1c(Cl)cccc1Cl)ON1C(=O)CCC1=O` [EQ-0025, succinimidyl-N-(2,6-dichlorobenzoyl)-6-amino-hexanoate], for which the “immunoresponse on immunisation with the hapten” value in experiment [3] is “able to induce strong immunoresponse”.
For `N#Cc1c(Cl)cccc1Cl` [dichlorbenil, dichlorobenzonitrile], the “cross-reactivity (IC50 of BAM divided by IC50 of analyte, times 100)” value with antibody (HYB 273-1) [2] is recorded as “no measurable cross-reactivity”.
On to “N-(5-carboxypentyl)-2,4-dichloro-3-amido aniline [EQ-0031]”, for which the “immunoresponse on immunisation with the hapten” value in experiment [3] was “good responses were generated; also recorded: generated good immunoresponse”.
For `NC(=O)c1ccc(Cl)cc1Cl` [2,4-dichlorobenzamide], in the experiment with antibody (HYB 273-1) [2], the “cross-reactivity (IC50 of BAM divided by IC50 of analyte, times 100)” value was determined as 3.8%.

The record behind these values is US6635434B1, “Immunoassay for pesticides and their degradation products” (Exiqon A/S, priority 1999, dated 2003).
